# Measured values as given in PMC9656735, “Eight Indole Alkaloids from the Roots of Maerua siamensis and Their Nitric Oxide Inhibitory Effects” (Molecules, 2022).
# Read-outs that look alike come from different tables or passages of the source.
# Columns and labels:
# NO = tested on: NO; design: method as in PMID 32163787; conditions: read-out: NO inhibitory activity IC50; cited from earlier work
# RAW 264.7 cells = assay: Cytotoxicity / cell viability by MTT assay in LPS-induced RAW 264.7 cells; type: cell-based; conditions: for Cytotoxicity: MTT, concentration at which cell viability was lower than 80%, maximum concentration 200 μM
# Procedure: (§1) The compounds were dissolved in DMSO to prepare their stock solutions at a concentration of 50 mM. Then, they were pipetted to mix in the culture medium to make the maximum tested concentration of 200 µM containing 0.4% DMSO. Then, the 200 µM tested solution was further diluted with a culture medium, giving the concentration series of 200, 100, 50, and 25 μM (2-fold dilution). The working concentrations of the test compounds [25, 50, 100, and 200 μM] were used to treat cells.
# (§2) Raw264.7 cells were seeded at a density of 5 × 10^4 cells/well in a 96-well plate. The cells were pre-treated with various concentrations of samples for 24 h. Cells were induced with 100 ng/mL LPS for 24 h. The culture supernatant was collected for NO production analysis, and cells were further examined for their viability.
# The cell viability was measured by the MTT assay. An MTT solution (1 mg/mL) was added to each well and incubated for 4 h at 37 °C. Then, the MTT solution was removed, and the formazan production was dissolved with DMSO. The absorbance was measured at 570 nm using a microplate reader (BioTeK, Santa Clara, CA, USA).
# [1] = tested on: nitric oxide (NO) production in LPS-induced RAW 264.7 cells; assay: Inhibition of nitric oxide production in LPS-induced RAW 264.7 cells (Griess reagent); type: cell-based; conditions: for IC50: Mus musculus; for nitric oxide inhibition activity compared with indomethacin: in words
# Procedure: as §1, §2
# The NO production was measured using a Griess reagent kit (Invitrogen, Thermo Fisher Scientific, Waltham, MA, USA). Ninety µL of culture media were mixed with 10 µL of Griess reagent and incubated at room temperature for 30 min, and then the NO concentration was measured at 540 nm using the microplate reader. The percentage of NO production was calculated as Equation (1). (1) %NO production = A/B × 100
# A: The concentration of the nitric oxide in the cells induced by LPS and with sample pre-treatment [LPS (+), sample (+)].
# B: The concentration of nitric oxide in the cells induced by LPS without sample pre-treatment [LPS (+), sample (−)].
# The NO inhibitory activity was expressed as half the maximum (IC50) of the inhibitory concentration calculated using GraphPad Prism 9.
# [2] = RAW264.7, pre-treated 24 h, then 100 ng/mL LPS 24 h, Mean ± SD from three independent experiments, tested 25-200 μM, read-out: IC50 of NO Inhibition
Compound,IC50 (NO) [µM],Cytotoxicity (RAW 264.7 cells),inhibition of nitric oxide production (in words) [1],"IC50 [1, 2] [µM]",nitric oxide inhibition activity compared with indomethacin [1],cytotoxicity (in words) (RAW 264.7 cells; IC50 of NO inhibition could not be determined),"IC50 ([1]; RAW264.7, above the 200 μM maximum tested concentration, Mean ± SD, read-out: IC50 of NO Inhibition (value in parentheses, above the maximum tested concentration)) [µM]"
isatindigoside F,70.3 ± 6.9,–,–,–,–,–,–
"COc1cccc2[nH]c3c(C#N)c4c(cc3c12)[nH]c1cc(O)ccc14 [Compound 8, 9-hydroxy-1-methoxy-5,11-dihydroindolo[3,2-b]carbazole-6-carbonitrile]",–,>200 µM,inhibited nitric oxide production,56.7 ± 3.8,stronger than indomethacin,–,–
isatindigoside G,67.3 ± 5.5,–,–,–,–,–,–
"COc1ccc2cc(C3=C(c4c[nH]c5cccc(OC)c45)N=C3[S+](C)[O-])[nH]c2c1 (stereo not drawn) [Compound 7, 4-methoxy-3-[3-(6-methoxy-1H-indol-2-yl)-2-(methylsulfinyl)azet-4-yl]-1H-indole]",–,toxicity at 100 μM,inhibited nitric oxide production,31.1 ± 1.8,stronger than indomethacin,–,–
"COc1ccc2cc(C3=C(c4c[nH]c5cccc(OC)c45)N=C3SC)[nH]c2c1 [Compound 6, 4-methoxy-3-[3-(6-methoxy-1H-indol-2-yl)-2-(methylthio)azet-4-yl]-1H-indole]",–,toxicity at 100 μM,–,–,–,too cytotoxic,–
"CO/N=C(\C=C1\C(=O)Nc2cc(OC)ccc21)SC [Compound 5, methyl (E)-N-methoxy-2-[(E)-6-methoxy-2-oxindolin-3-ylidene]ethanimidothiolate]",–,>200 µM,inhibited nitric oxide production,92.2 ± 8.9,stronger than indomethacin,–,–
"CO/N=C(/Cc1c[nH]c2cc(OC)ccc12)SC [Compound 3, methyl (Z)-N-methoxy-2-(6-methoxy-1H-indol-3-yl)ethanimidothioate]",–,toxicity at 100 μM,–,–,–,–,–
"COc1ccc2c(c1)c(CC(=O)O)c(C)n2C(=O)c1ccc(Cl)cc1 [indomethacin, reference compound]",–,>200 µM,–,150 ± 16,–,–,–
"COc1ccc2c(CC#N)c([S+](C)[O-])[nH]c2c1 (stereo not drawn) [Compound 2, 2-(6-methoxy-2-(methylsulfinyl)-1H-indol-3-yl)acetonitrile]",–,>200 µM,inhibited nitric oxide production,187 ± 23.1,as strong as indomethacin,–,–
"CO/N=C(\SC)C(=O)c1c[nH]c2cc(OC)ccc12 [Compound 4, methyl (Z)-N-methoxy-2-(6-methoxy-1H-indol-3-yl)-2-oxoethanimidothioate]",–,>200 µM,–,> 200,–,–,> 200
"COc1ccc2c(c1)NC(=O)[C@]2(O)CC#N [Compound 1, (+)-(S)-2-(3-hydroxy-6-methoxy-2-oxoindolin-3-yl)acetonitrile]",–,>200 µM,inhibited nitric oxide production,186 ± 22.5,as strong as indomethacin,–,–
